Laboratory results from patent US20050214285A1, “Epitopes or mimotopes derived from the C-epsilon-3 or C-epsilon-4 domains of IgE, antagonists thereof, and their therapeutic uses” (SmithKline Beecham Biologicals, s.a. and Peptide …, priority 1999, published 2005).
Like-named read-outs stand apart in the source and are kept apart here. Positions of bridges follow the written chain, without caps; N, C: chain ends. Residues, ends and D or L forms follow the SMILES beside them. No end group written: not given here.

Assays:
PTmAb0011 [1] = experiment: BIAcore affinity to PTmAb0011; type: binding, mouse; conditions: for Kd: read-out: PTmAb BIAcore KD^Rel (μM) PTmAb0011
Excerpt: (§1) This involved a DNA sub-cloning transfer from the major coat protein (gVIIIp) filamentous phage display vector to a lower copy number minor phage coat protein (gIIIp) display vector with a random PCR step. […] Included in the tables are ranking orders and also BIAcore affinities where available.
(§2) Thus indicating the importance of correct presentation of the peptides of the present invention to adopt a shape which closely resembles the native target in the context of the whole IgE molecule. [drawing]

PTmAb0005 [2] = experiment: Phage display ranking of peptide ligands for PTmAb0005; type: binding; conditions: for Rank (ECL) PTmAb0005: primary phage display biopannings (Table 6); for PTmAb Rank 0005: IgEC67 mutants (Table 8)
Protocol: (§3) Phage display libraries were used to map the binding sites of the monoclonal antibodies using three different phage libraries, displaying either the XCX15, XCX10 or XAX10 peptide sequence (where X is any amino acid) at the N-terminus of the phage gVIIIp. Tables 6 and 7 show the results of selecting for peptide ligands with the anti human IgE monoclonal antibodies […]. […]
This was performed by introducing random mutations by PCR mutagenesis and sub-cloning into the Fuse 5 vector for minor filamentous phage protein gIIIp display. These, and other results, confirmed the importance of the amino acids within IgEC67 which aligned with the Cε2 epitope. […] Mutations in other sites had little effect on the affinity to PTmAb0005.
as §1

PTmAb0005 [3] = experiment: BIAcore affinity to PTmAb0005; type: binding
Excerpt: as §1, §2

PTmAb0011 [4] = experiment: Phage display ranking of peptide ligands for PTmAb0011; type: binding, mouse; conditions: for PTmAb Rank 0011: IgEC67 mutants (Table 8)
Excerpt: as §3, §1

[5] = read-out: PTmAb BIAcore KD^Rel (μM) PTmAb0005

Molecule	Kd (PTmAb0011 [1]) [µM]	Kd (PTmAb0005 [3]; [5]) [µM]	Rank (ECL) PTmAb0005 (PTmAb0005 [2])	PTmAb Rank 0005 (PTmAb0005 [2])	PTmAb Rank 0011 (PTmAb0011 [4])	also measured
VAGGQVVDRELK [ESB10/38]	> 1000	139	0	–	–	–
KAGEQAMDMELR [ESB8]	> 1000	257	0	–	–	–
CC[C@H](C)[C@@H]1NC(=O)[C@H](CCSC)NC(=O)[C@H](CCC(=O)O)NC(=O)[C@H](CO)NC(=O)CNC(=O)CNC(=O)[C@H](CC(C)C)NC(=O)[C@H](Cc2c[nH]c3ccccc23)NC(=O)[C@H](C(C)C)NC(=O)[C@H](CCC(=O)O)NC(=O)[C@H](CCCNC(=N)N)NC(=O)[C@@H](NC(=O)[C@@H](N)CO)CSSC[C@@H](C(=O)N[C@@H](CCC(=O)O)C(=O)O)NC(=O)[C@H](CC(=O)O)NC(=O)[C@H](CCSC)NC1=O [EEC39/50/129] (H-SCREVWLGGSEMIMDCE-OH; disulfide 2-16)	2.4	> 1000	–	–	–	Rank (ECL) PTmAb0011 (PTmAb0011 [4]; primary phage display biopannings (Table 7)): 1611
GAMTAGQLSDLP [ESB25]	> 1000	60	0	–	–	–
CSCC[C@H](NC(=O)[C@H](CCC(N)=O)NC(=O)CNC(=O)[C@H](Cc1ccc(O)cc1)NC(=O)[C@@H](NC(=O)[C@H](CC(C)C)NC(=O)[C@H](CS)NC(=O)[C@@H](N)CCC(=O)O)C(C)C)C(=O)N[C@@H](C)C(=O)N[C@@H](CC(=O)O)C(=O)N[C@@H](CS)C(=O)N[C@@H](C)C(=O)N[C@@H](C)C(=O)NCC(=O)NCC(=O)N[C@@H](Cc1c[nH]c2ccccc12)C(=O)N1CCC[C@H]1C(=O)O [IgEC13] (H-ECLVYGQMADCAAGGWP-OH)	> 1000	> 1000	5	–	–	–
ADGAGCFMNKQMADLELCPRTAAEA [IgEC67-1]	–	–	–	4.1	2.2	–
ADGAGCFMNKQLADPELCPREAEEA [IgEC67-4]	–	–	–	2.4	1.3	–
CLEDGQVMDVDCPREAAEGDK (disulfide 1-12 (inferred)) [PT1078, P1 mimotope]	–	–	–	–	–	binding of the peptide to PTmAb0011 compared with PT1079 (PTmAb0011 [1]): reduced the binding; binding of the peptide to PTmAb0005 compared with PT1079 (PTmAb0005 [3]): reduced the binding
ADGAGCFMNKQMADWEMCPRAAAEA [IgEC67-11]	–	–	–	1.8	1.9	–
ADGAACFMNKQMADLELCPRVAAEA [IgEC67-2]	–	–	–	3.2	1.8	–
ADGAGCFINKQLADLELCPREAAEA [IgEC67-12]	–	–	–	3	1.9	–
ADGAGCFINKQLADLELCPRVAAEA [IgEC67-3]	–	–	–	3	1.7	–
ADGAGCFMNKQQADLELCPRGAAEA [IgEC67-14]	–	–	–	1.2	0.9	–
ADGAECFMNKQLADSELCPRVAAEA [IgEC67-13]	–	–	–	1.1	0.8	–
CSCC[C@@H]1NC(=O)[C@H](C(C)C)NC(=O)[C@H](CCC(N)=O)NC(=O)CNC(=O)[C@H](CC(=O)O)NC(=O)[C@H](CCC(=O)O)NC(=O)[C@H](CC(C)C)NC(=O)[C@@H](NC(C)=O)CSSC[C@@H](C(=O)N2CCC[C@H]2C(=O)N[C@@H](CCCNC(=N)N)C(=O)N[C@@H](CCC(=O)O)C(=O)N[C@@H](C)C(=O)N[C@@H](C)C(=O)N[C@@H](CCC(=O)O)C(=O)NCC(=O)N[C@@H](CC(=O)O)C(=O)N[C@@H](CCCCNC(C)=O)C(N)=O)NC(=O)[C@H](CC(C)C)NC(=O)[C@H](CC(=O)O)NC(=O)[C@H](C(C)C)NC(=O)[C@H](CC(=O)O)NC1=O [PT1079] (Ac-CLEDGQVMDVDLCPREAAEGDK(Ac)-NH2; disulfide 1-13)	–	–	–	–	–	Kd (PTmAb0005 [3]; BIAcore, read-out: apparent affinity to PTmAb0005): 0.02 µM

Further lines, with some results ahead:

Kd (PTmAb0011 [1]) [µM]	Kd (PTmAb0005 [3]; [5]) [µM]	Molecule	Rank (ECL) PTmAb0005 (PTmAb0005 [2])	PTmAb Rank 0005 (PTmAb0005 [2])	PTmAb Rank 0011 (PTmAb0011 [4])	also measured
53.4	3	CSCC[C@H](NC(=O)[C@H](CCC(N)=O)NC(=O)[C@H](CC(C)C)NC(=O)CNC(=O)[C@H](CCC(=O)O)NC(=O)[C@H](CC(C)C)NC(=O)[C@@H](NC(=O)[C@H](C)NC(=O)[C@H](CC(N)=O)NC(=O)[C@H](CS)NC(=O)[C@@H](N)CCC(N)=O)C(C)C)C(=O)N[C@H](C(=O)N[C@@H](CC(=O)O)C(=O)N[C@@H](Cc1c[nH]cn1)C(=O)N[C@@H](CS)C(=O)N[C@@H](Cc1c[nH]c2ccccc12)C(=O)N[C@@H](CC(N)=O)C(=O)O)C(C)C [IgEC26] (H-QCNAVLEGLQMVDHCWN-OH)	43	–	–	–
4.8	0.1	CSCC[C@@H]1NC(=O)[C@H](Cc2ccccc2)NC(=O)[C@@H](N)CSSC[C@@H](C(=O)N2CCC[C@H]2C(=O)N[C@@H](CCCNC(=N)N)C(=O)N[C@@H](CCC(=O)O)C(=O)O)NC(=O)[C@H](CC(C)C)NC(=O)[C@H](CCC(=O)O)NC(=O)[C@H](CC(C)C)NC(=O)[C@H](CC(=O)O)NC(=O)[C@H](C)NC(=O)[C@H](CC(C)C)NC(=O)[C@H](CCC(N)=O)NC(=O)[C@H](CCCCN)NC(=O)[C@H](CC(N)=O)NC1=O [IgEC67] (H-CFMNKQLADLELCPRE-OH; disulfide 1-13)	243	–	–	binding / affinity to PTmAb0005 (PTmAb0005 [2]; IgEC67 and its mutants, gIIIp display): highest affinity
> 600	> 600	CSCC[C@H](NC(=O)[C@H](CCC(=O)O)NC(=O)[C@H](CO)NC(=O)[C@H](CO)NC(=O)[C@@H]1CCCN1C(=O)[C@@H](NC(=O)[C@H](CCSC)NC(=O)[C@H](CCC(N)=O)NC(=O)[C@@H](NC(=O)[C@H](CCC(=O)O)NC(=O)[C@@H]1CCCN1C(=O)[C@H](CC(=O)O)NC(=O)[C@H](C)NC(=O)[C@@H](NC(=O)[C@H](CS)NC(=O)[C@@H](N)CS)C(C)C)[C@@H](C)O)[C@@H](C)O)C(=O)N[C@@H](Cc1ccccc1)C(=O)O [IgEC29] (H-CCVADPETQMTPSSEMF-OH)	40	–	–	–
6.4	6.6	CC(C)[C@H](NC(=O)[C@H](CC(=O)O)NC(=O)[C@H](CO)NC(=O)[C@@H]1CSSC[C@H](NC(=O)[C@@H](N)CO)C(=O)N[C@@H](C)C(=O)N[C@@H](Cc2ccc(O)cc2)C(=O)N[C@@H]([C@@H](C)O)C(=O)N[C@@H](C)C(=O)N[C@@H](CCC(N)=O)C(=O)N[C@@H](CCCNC(=N)N)C(=O)N[C@@H](CCC(N)=O)C(=O)N1)C(=O)N1CCC[C@H]1C(=O)N[C@@H](CC(N)=O)C(=O)N1CCC[C@H]1C(=O)NCC(=O)O [IgEC69] (H-SCAYTAQRQCSDVPNPG-OH; disulfide 2-10)	11	–	–	–
> 600	> 600	CC[C@H](C)[C@H](NC(=O)[C@@H]1CCCN1C(=O)[C@H](CC(C)C)NC(=O)CNC(=O)[C@H](CCCNC(=N)N)NC(=O)[C@H](CC(N)=O)NC(=O)[C@@H]1CCCN1C(=O)[C@H](CC(=O)O)NC(=O)[C@H](C)NC(=O)[C@@H]1CCCN1C(=O)[C@H](CO)NC(=O)[C@H](CC(=O)O)NC(=O)[C@H](CO)NC(=O)[C@H](CCSC)NC(=O)[C@H](CS)NC(=O)[C@@H](N)CS)C(=O)N[C@@H](Cc1c[nH]c2ccccc12)C(=O)O [IgEC66] (H-CCMSDSPADPNRGLPIW-OH)	0	–	–	–
> 500	19.4	CC[C@H](C)[C@H](NC(=O)[C@H](CCCCN)NC(=O)[C@H](CC(C)C)NC(=O)[C@H](CS)NC(=O)[C@@H](N)CCC(=O)O)C(=O)N[C@@H](CCC(=O)O)C(=O)N[C@@H](CCC(N)=O)C(=O)N[C@@H](CCC(N)=O)C(=O)N[C@@H](CS)C(=O)N[C@@H](C)C(=O)N[C@@H](CC(=O)O)C(=O)N[C@H](C(=O)N[C@H](C(=O)N[C@@H](CCC(=O)O)C(=O)N[C@H](C(=O)N1CCC[C@H]1C(=O)N[C@@H](CCCNC(=N)N)C(=O)O)[C@@H](C)CC)C(C)C)[C@@H](C)CC [IgEC42] (H-ECLKIEQQCADIVEIPR-OH)	15	–	–	–
6.3	78	CSCC[C@H](NC(=O)[C@H](CC(N)=O)NC(=O)[C@@H](NC(=O)[C@@H](NC(=O)[C@H](CCC(N)=O)NC(=O)[C@@H](NC(=O)[C@H](CC(=O)O)NC(=O)[C@@H](NC(=O)[C@@H](NC(=O)[C@H](CS)NC(=O)[C@@H](N)CS)C(C)C)[C@@H](C)O)C(C)C)[C@@H](C)O)[C@@H](C)O)C(=O)N[C@@H](CC(=O)O)C(=O)N[C@H](C(=O)N1CCC[C@H]1C(=O)N[C@@H](C)C(=O)NCC(=O)N[C@@H](CCC(N)=O)C(=O)O)C(C)C [IgEC81] (H-CCVTDVQTTNMDVPAGQ-OH)	0	–	–	–
> 600	> 600	CC[C@H](C)[C@H](NC(=O)CNC(=O)[C@@H]1CCCN1C(=O)[C@H](CCC(N)=O)NC(=O)[C@H](Cc1c[nH]cn1)NC(=O)[C@@H]1CCCN1C(=O)[C@@H](NC(=O)[C@H](CC(=O)O)NC(=O)[C@H](CO)NC(=O)[C@H](CCC(N)=O)NC(=O)[C@H](CS)NC(=O)[C@@H](N)CS)C(C)C)C(=O)N[C@@H](CC(N)=O)C(=O)N[C@@H](CC(=O)O)C(=O)N[C@@H](CC(C)C)C(=O)N[C@@H](Cc1c[nH]cn1)C(=O)N[C@H](C(=O)O)C(C)C [IgEC73] (H-CCQSDVPHQPGINDLHV-OH)	0	–	–	–
> 1000	60	CSCC[C@H](NC(=O)[C@@H](NC(=O)[C@H](Cc1ccccc1)NC(=O)[C@H](CCC(N)=O)NC(=O)[C@H](CCCNC(=N)N)NC(=O)[C@H](CS)NC(=O)[C@@H](N)CCC(N)=O)C(C)C)C(=O)N[C@@H](CC(N)=O)C(=O)N[C@@H](CCC(N)=O)C(=O)N[C@@H](CO)C(=O)N[C@@H](CCC(=O)O)C(=O)N[C@@H](CCCCN)C(=O)N[C@@H](CCC(=O)O)C(=O)N[C@@H](Cc1ccccc1)C(=O)NCC(=O)N[C@@H](CCC(N)=O)C(=O)N[C@@H](CS)C(=O)O [IgEC56] (H-QCRQFVMNQSEKEFGQC-OH)	0	–	–	–
